Results taken from US10676440B2, “Crystalline forms of an NK-1 antagonist” (Helsinn Healthcare SA, priority 2014, dated 2020).

Assays:
in vivo = details: male, RoRo Fuellinsdorf, rat, in vivo; for AUC(0-t): AUC (0-24 h)
Procedure: In Example 11, the pharmacokinetics of the compound of Formula I was evaluated following single intravenous, intraperitoneal, and oral administration to rats to compare the oral bioavailability of two different formulations and to measure the brain penetration after intravenous administration.
A solution of the compound of Formula I (4.7 mg/mL) in water and a suspension of the compound of Formula I (5 mg/mL) in SSV (standard suspension vehicle) were prepared.
The experiments were performed in 20 male rats (Strain RoRo Fuellinsdorf, body weight 230-290 g) from Biological Research Laboratories, Fuellinsdorf, Switzerland. The animals were housed under standard laboratory conditions throughout the study period. After an acclimatization period of 3 days, the rats were implanted with chronic jugular catheters under pentobarbital anesthesia. After surgery the rats were on recovery for 2 days before dosing. They had free access to water and food during the experiment.
For the pharmacokinetic studies, 0.4 mL blood samples were collected at different time points, up to 72 hours post-dose, from the jugular vein of the rats via catheter. For the study of brain and CSF penetration, 2 mL blood samples as well as CSF and brain were collected between 0.3 and 2 hours post-dose from one rat at each time point. Collection tubes contained EDTA/NAF as anticoagulant and stabilizer, respectively. After centrifugation, plasma was removed. Plasma, CSF and brain samples were stored deep-frozen at approximately −20° C. until analysis using a specific LC-MS method.
Aliquots of plasma samples of 40 μL were mixed with 50 μL buffer pH 9, 50 μL of a Formula I internal standard (1 μg/mL 1-chlorobutane) and 250 μL butylacetate and then shaken for 10 min. After centrifugation, 200 μL of the supernatant were evaporated to dryness at 45° C. under a stream of nitrogen. The residue was reconstituted with 200 μL acetonitrile/1% formic acid in water (30/70, v/v). An aliquot of 30 μL was injected onto an analytical column (Waters, Symmetry C8, 2.1×150 mm, 5 μm).
The sample passed to the ion-spray interface of the single quadrupole mass spectrometer. Selected ion monitoring mode (SIM) was used for mass spectrometric detection. Quantification was based on peak area ratios and calibration curve established by weighted (1/x^2) linear regression. The calibration curve was established between 5 and 5000 ng/mL using dog plasma as matrix. Data acquisition and integration of SIM chromatograms were performed using MacQuan (version 1.6) from Perkin-Elmer Sciex.
The pharmacokinetic parameters were estimated by non-compartmental analysis, using the pharmacokinetic evaluation program WinNOnlin [1]. AUC(0-inf) was calculated applying the linear trapezoidal rule and extrapolation to infinity using the apparent elimination rate constant λz and the calculated concentration at the last measurable time point. AUClast values were calculated by linear trapezoidal rule from time zero to time of last measureable time point. Cmax, C(t), and Tmax were determined directly from the plasma concentration-time profiles. The apparent terminal half-life (T1/2) was derived from the equation: T1/2=ln2/λz. Means of the half-life were calculated by harmonic means. Plasma clearance, CL, was calculated as D/AUC(0-inf.). Volume of distribution, Vz, was calculated as CL/λz. The absolute bioavailability was calculated from plasma concentration data as follows: […]
A solution of Formula I (hydrochloride salt) was administered intravenously at a dose of 9.4 mg/kg to 2 male rats in two subsequent experiments. In both studies, blood samples were obtained at 0.083, 0.25, 0.5, 1, 2, 4, 6, 8, and 24 h after intravenous application and in addition at 48 and 72 h in the study.

[1] = Brain and CSF penetration after intravenous administration in rats; type: in vivo; details: male, RoRo Fuellinsdorf, rat, brain homogenate / plasma, i.v., approximately 0.25, 0.5, 1 and 2 h, read-out: ratios of brain homogenate/plasma concentrations
Procedure: After centrifugation, plasma was removed.
The frozen half brain was weighed. After thawing, the tissue was suspended in a 2 mL eppendorf polypropylene tube with 2 volumes of sterile apyrogen and cold NaCl (+4° C.; 0.9% solution) (0.333 g brain/mL NaCl). The tissue was homogenized (ice bath) using a Vibra-Cell ultrasonic processor (Sonics & Material, Inc. Danbury, CT-USA) for 2×10 s (amplitude: 60, energy: 25). An aliquot of the resulting brain homogenate (40 μL) was used for extraction as described for plasma. 50 μL CSF with 50 μL plasma were used for extraction as described under plasma sample preparation.
Brains were taken at approximately 0.25, 0.5, 1 and 2 h after intravenous administration of Formula I into the tail vein of 8 rats (2 rats per time point). For all time points, the concentrations were higher in the brain than in the plasma, with ratios of brain homogenate/plasma concentrations of 2.4 to 4.9. The CSF was taken at the same time points and analyzed but the concentrations were low (4.9 to 16 ng/mL or below 4 ng/mL), possibly due to the high plasma protein binding.

rat plasma proteins = assay: Binding to rat plasma proteins; type: in vitro ADME
[2] = Pilot whole body autoradiography study in rats; type: in vivo

**Q.** Which “AUC (0-24 h)” value (in vivo; ip, 9.4 mg/kg) does the source give for Cc1ccccc1-c1cc(N2CCN(C)CC2)ncc1N(C)C(=O)C(C)(C)c1cc(C(F)(F)F)cc(C(F)(F)F)c1 [Formula I, 2-(3,5-bis(trifluoromethyl)phenyl)-N,2-dimethyl-N-(6-(4-methylpiperazin-1-yl)-4-(o-tolyl)pyridin-3-yl)propanamide] here?
**A.** Its value is 19900 ng·h/mL.

**Q.** What about the Cmax (in vivo; ip, 9.4 mg/kg) of the same compound?
**A.** The Cmax was 1730 ng/mL.

**Q.** And the Tmax (in vivo; ip, 9.4 mg/kg)?
**A.** The Tmax was 0.25 h.

**Q.** And the AUC(0-t) (in vivo; ip, 9.4 mg/kg)?
**A.** Its AUC(0-t) is 26800 ng·h/mL.

**Q.** And the Cmax (in vivo; ip, 9.4 mg/kg, Cmax)?
**A.** Its Cmax is 1610 ng/mL.

**Q.** What about the Tmax (in vivo; ip, 9.4 mg/kg, Tmax) of the same compound?
**A.** The Tmax was ≤ 0.25 h.

**Q.** What about the Vd (in vivo; iv) of the same compound?
**A.** Its Vd is 12 L/kg.

**Q.** What about the clearance (in vivo; iv) of the same compound?
**A.** Its clearance is 6 mL/min/kg.

**Q.** And the “AUC (0-24 h)” value (in vivo; iv, 9.4 mg/kg)?
**A.** Its value is 24400 ng·h/mL.

**Q.** What about the AUC(0-t) (in vivo; iv, 9.4 mg/kg) of the same compound?
**A.** Its AUC(0-t) is 29200 ng·h/mL.

**Q.** What about the half-life (in vivo; iv, 9.4 mg/kg, mean apparent terminal half-life) of the same compound?
**A.** Its half-life is 19.5 h.

**Q.** What about the “AUC (0-24 h)” value (in vivo; po, 9.4 mg/kg) of the same compound?
**A.** The value was 12600 ng·h/mL.

**Q.** What about the Cmax (in vivo; po, 9.4 mg/kg) of the same compound?
**A.** Its Cmax is 682 ng/mL.

**Q.** And the T1/2 (in vivo; po, 9.4 mg/kg)?
**A.** Its T1/2 is 18.9 h.

**Q.** What about the Tmax (in vivo; po, 9.4 mg/kg) of the same compound?
**A.** Its Tmax is 4 h.

**Q.** What about the AUC(0-t) (in vivo; po, 9.4 mg/kg) of the same compound?
**A.** The AUC(0-t) was 15000 ng·h/mL.

**Q.** What about the Cmax (in vivo; po, 9.4 mg/kg, Cmax) of the same compound?
**A.** The Cmax was 991 ng/mL.

**Q.** And the half-life (in vivo; po, 9.4 mg/kg, T1/2)?
**A.** The half-life was 17.7 h.

**Q.** And the Tmax (in vivo; po, 9.4 mg/kg, Tmax)?
**A.** Its Tmax is 2 h.

**Q.** And the Kp [1]?
**A.** The Kp was 2.4 to 4.9.

**Q.** And the “binding to rat plasma proteins” value (rat plasma proteins)?
**A.** The value was 99.8%.

**Q.** And the “distribution and elimination of the labeled compound and/or metabolites” value [2]?
**A.** Its value is “extensive distribution of the labeled compound and/or metabolites as well as a very slow elimination from the body”.
